In PubChem BioAssay AID623948 (Vanderbilt Specialized Chemistry Center, 2012):
Activity calls are given as the source filed them.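 How the source made its calls: active means compound shifting the acetylcholine potency curve by more than threefold; inactive means the rest.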

Biological target: Muscarinic acetylcholine receptor M4 (Homo sapiens) (UniProt P08173)
Test: ACh curve leftward shift by hM4 PAMs, SAR follow-up, mechanism study, CHO cells, Gqi5 chimera, calcium mobilization (AID 623948)
Details: for % ACh max / outcome: ACh fold shift; for % ACh max: measured here: ACh max response with compound; for % ACh max / fold shift: at 30 µM, stronger effect = higher value

Muscarinic acetylcholine receptor M4 (Homo sapiens), sequence (P08173 whole entry, looked up): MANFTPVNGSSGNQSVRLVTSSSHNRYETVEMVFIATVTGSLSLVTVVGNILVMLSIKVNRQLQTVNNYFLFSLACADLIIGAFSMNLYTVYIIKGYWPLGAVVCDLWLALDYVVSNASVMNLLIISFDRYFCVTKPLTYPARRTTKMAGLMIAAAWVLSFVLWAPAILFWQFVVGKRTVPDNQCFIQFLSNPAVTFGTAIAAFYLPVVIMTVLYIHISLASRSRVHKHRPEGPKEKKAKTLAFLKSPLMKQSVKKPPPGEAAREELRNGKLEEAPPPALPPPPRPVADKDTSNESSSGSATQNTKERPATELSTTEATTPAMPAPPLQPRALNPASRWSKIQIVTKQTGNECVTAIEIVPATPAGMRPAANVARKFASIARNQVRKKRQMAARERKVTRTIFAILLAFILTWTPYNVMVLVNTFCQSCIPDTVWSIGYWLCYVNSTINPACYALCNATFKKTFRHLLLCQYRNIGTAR

SMILES | % ACh max [%] | fold shift | outcome
COc1ccc(C)c2sc(NC(=O)c3ccncc3)nc12 | 110 | 14.9 | 
Cc1nc2sc(C(=O)NC3CC3)c(N)c2c(C)c1Cl |  |  | active; potentiator
COc1ccc(C)c2sc(NC(=O)c3cccnc3)nc12 | 105 | 2.93 | 
COc1ccc(C)c2sc(NC(=O)C3=COCCO3)nc12 | 106 | 5.98 | 
COc1ccc(C)c2sc(NC(=O)c3ccco3)nc12 | 112 | 3.63 | 
Cc1nc2sc(C(=O)NCc3ccccc3)c(N)c2c(C)c1Cl |  |  | active; potentiator
Cc1nc2sc(C(=O)NCc3cccc(F)c3F)c(N)c2c(C)c1Cl |  |  | active; potentiator
Cc1nc2sc(C(=O)NCc3ccncc3)c(N)c2c(C)c1Cl |  |  | active; potentiator
COc1ccc(C)c2sc(NC(=O)c3cnccn3)nc12 | 110 | 3.65 | 
Cc1nc2sc(C(=O)NC3CCOCC3)c(N)c2c(C)c1Cl |  |  | active; potentiator
Cc1nc2sc(C(=O)NCCc3ccncc3)c(N)c2c(C)c1Cl |  |  | active; potentiator
Cc1nc2sc(C(=O)NCc3cccnc3)c(N)c2c(C)c1Cl |  |  | active; potentiator
Cc1nc2sc(C(=O)NCc3ccc4c(c3)OCO4)c(N)c2c(C)c1Cl |  |  | active; potentiator
Cc1nc2sc(C(=O)NCc3nccs3)c(N)c2c(C)c1Cl |  |  | active; potentiator
Cc1nc2sc(C(=O)NCc3ccncn3)c(N)c2c(C)c1Cl |  |  | active; potentiator
